Test results reported in US12673017B2, “Ultra-mild, concentrated and self-preserving cleansing compositions for personal care” (GALAXY SURFACTANTS LTD, priority 2022, dated 2026).

System: blood capillaries of chorioallantoic membrane of hen's fertilized egg
Test: HET-CAM test (hen's egg test on chorioallantoic membrane, Invittox protocol 47)
Set-up: species or system White Leghorn chicken
Conditions: for Irritancy Score by HET-CAM: Table 2, individual surfactants
Source text: The HET-CAM (Hen's egg test on chorioallantoic membrane, as per Invittox Protocol 47) method. The hen's egg test on Chorioallantoic Membrane (HET-CAM) is an alternative in-vitro method developed by Luepke et al. to substitute Draize test that was done on rabbits. (Luepke N. Hen's egg chorioallantoic membrane test for irritation potential. Food Chem Toxicol. 1985; 23(2):287-291). It is subsequently modified by […] et al. ([…] Test. The […]. Databank of in-vitro techniques. […] Subsequently, the methodology is successfully adopted to personal care by […] et al. ([…], Bracher M, Courtellemont P, de Silva O. The HET-CAM, a useful in vitro assay for assessing the eye irritation properties of cosmetic formulations and ingredients. Toxicol. […] The egg's shell is opened at the side of the air chamber, and the egg white membrane is removed while avoiding any damage to the fine blood vessels. […] Based on Irritation score the damaging potential is classified into four categories as described in the table 1 below. White Leghorn chicken eggs (up to 9 days of incubation) are candled to ensure that all are viable. Egg shell is marked using a rotating dentist-sawblade and the section of the shell is removed. The membrane is carefully moistened with 0.9% NaCl solution and the eggs are replaced in incubator until ready for assaying. […] Onset of haemorrhage (Bleedings), vascular lysis (Blood vessel disintegration), coagulation (protein denaturation intra and extra vascular) is monitored. The onset of the biological endpoints is recorded in number of seconds and the irritancy scores are calculated as per formula prescribed in the protocol document. The irritancy score is broadly divided into four different categories of damaging potential as described in Table 1.

Compound: Cocamido propyl sulphobetaine
- Irritancy Score by HET-CAM (1% test solution): 10

Compound: Lauryl glucoside
- Irritancy Score by HET-CAM (1% test solution): 6.5

Compound: Lauramido propyl PG dimonium chloride phosphate
- Irritancy Score by HET-CAM (1% test solution): 8.0

Compound: Cocomido propyl betaine
- Irritancy Score by HET-CAM (1% test solution): 10.8

Compound: Caprylyl/capryl glucoside
- Irritancy Score by HET-CAM (1% test solution): 8

Compound: Cocamidopropyl PG dimonium chloride phosphate
- Irritancy Score by HET-CAM (1% test solution): 7.5

Compound: CCCCCCCCCCCCOS(=O)(=O)[O-].[Na+] [Sodium lauryl sulphate]
- Irritancy score (IS) by HET-CAM: around 16
- Irritancy Score by HET-CAM (1% test solution): 16.7
- C, calculated coagulation part of IS (Table 3b): 5.0
- H, calculated haemorrhage part of IS (Table 3b): 4.5
- IS (irritation score) (Table 3b): 15.1
- L, calculated lysis part of IS (Table 3b): 5.6
- C, time for appearance of coagulation (Table 3b, 1% test solution): 134 s
- H, time for appearance of haemorrhage (Table 3b, 1% test solution): 31 s
- L, time for appearance of lysis (Table 3b, 1% test solution): 63 s
- C, time for appearance of coagulation (Table 6a): 134 s
- Calculation C (Table 6a): 5.0
- Calculation H (Table 6a): 4.5
- Calculation L (Table 6a): 5.6
- H, time for appearance of haemorrhage (Table 6a): 31 s
- IS (irritation score) (Table 6a): 15.1
- L, time for appearance of lysis (Table 6a): 63 s
- C, calculated coagulation part of score (Table 12): 5.0
- C, time for appearance of coagulation (Table 12): 134 s
- H, calculated haemorrhage part of score (Table 12): 4.5
- H, time for appearance of haemorrhage (Table 12): 31 s
- Irritancy score (Table 12): 15.1
- L, calculated lysis part of score (Table 12): 5.6
- L, time for appearance of lysis (Table 12): 63 s
